From PubChem BioAssay (NCI)
Where “and” joins values, the source holds several entries; their conditions need not be identical. Equal values may be shown once.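 The compound was tested at five concentrations on cells cultured in 96-well plates, with a 48-hour exposure period. Here, GI50 denotes the concentration required for 50% inhibition of growth. TGI denotes the concentration required for complete inhibition of growth.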

What was measured:
Assay in all cases: NCI-60 cell line screen, 48 h
K-562 leukemia = system: K-562 leukemia
KM12 colon = system: KM12 colon
LOX IMVI melanoma = system: LOX IMVI melanoma
M14 melanoma = system: M14 melanoma
NCI/ADR-RES ovarian = system: NCI/ADR-RES ovarian
OVCAR-4 ovarian = system: OVCAR-4 ovarian
OVCAR-8 ovarian = system: OVCAR-8 ovarian
SK-MEL-2 melanoma = system: SK-MEL-2 melanoma
SK-MEL-5 melanoma = system: SK-MEL-5 melanoma
MALME-3M melanoma = system: MALME-3M melanoma

SMILES | GI50 (K-562 leukemia) [µM] | TGI (K-562 leukemia) [µM] | GI50 (KM12 colon) [µM] | TGI (KM12 colon) [µM] | GI50 (LOX IMVI melanoma) [µM] | TGI (LOX IMVI melanoma) [µM] | GI50 (M14 melanoma) | TGI (M14 melanoma) [µM] | GI50 (NCI/ADR-RES ovarian) [µM] | TGI (NCI/ADR-RES ovarian) [µM] | GI50 (OVCAR-4 ovarian) [µM] | TGI (OVCAR-4 ovarian) [µM] | GI50 (OVCAR-8 ovarian) [µM] | TGI (OVCAR-8 ovarian) [µM] | GI50 (SK-MEL-2 melanoma) [µM] | TGI (SK-MEL-2 melanoma) [µM] | GI50 (SK-MEL-5 melanoma) [µM] | TGI (SK-MEL-5 melanoma) [µM] | TGI (MALME-3M melanoma) [µM] | GI50 (MALME-3M melanoma) [µM]
CCN(CC)CCOc1ccc2c(C)c(C(=O)OC)oc2c1C(=O)/C=C/c1ccc(OC)cc1 | 1.13 | > 20.1 | 1.76 | 3.96 | 1.34 | 2.81 | 25.4 µM | > 48.7 | 2.58 | 6.53 | 2.43 | 6.85 | 20.2 | 40.1 | 9.99 | > 23.2 | 20.4 | 37.2 | – | –
Cc1nc(-n2nc(-c3ccccc3)cc2-c2ccccc2)sc1C(=O)/C=C/c1ccccc1 | – | > 100 | – | > 100 | – | > 100 | – | – | – | – | – | – | – | > 100 | – | > 100 | – | > 100 | > 100 | –
O=c1cccccc1[O-].O=c1cccccc1[O-].O=c1cccccc1[O-].[Sm+3] | – | > 100 | – | > 100 | – | > 100 | – | > 100 | – | – | – | > 100 | – | > 100 | – | > 100 | – | 89.9 | > 100 | –
Nc1ccc(C(=O)/C=C/c2ccccc2O)cc1 | – | > 100 | – | > 100 | – | > 100 | – | > 100 | – | – | – | > 100 | – | > 100 | – | > 100 | – | > 100 | > 100 | –
O=C1CNN=C(Cn2nc(-c3ccccc3)c3ccccc3c2=O)N1 | – | > 100 | – | > 100 | – | – | – | > 100 | – | – | – | > 100 | – | > 100 | – | > 100 | – | > 100 | > 100 | –
CC1CC(C)C(C(O)CC2CC(=O)N(c3ccccc3)C(=O)C2)C(O)C1 (stereo not drawn) | – | > 100 | – | > 100 | – | > 100 | – | > 100 | – | – | – | > 100 | – | > 100 | – | – | – | – | > 100 | –
O=C1CCS/C(=N/S(=O)(=O)c2ccc(N3N=C4c5ccccc5CC4C3c3cccs3)cc2)N1Cc1ccccc1 (stereo not drawn) | > 100 | > 100 | 17.1 | 41 | 13.6 | 27.2 | 15.3 µM | 30.1 | 20.8 | 40.1 | 49.3 | > 100 | 19.2 | 39.3 | 28 | > 100 | 14.1 | 28.8 | – | –
c1ccc2c3c([nH]c2c1)C1C2CCCCN2C(c2ccncc2)N1CC3 (stereo not drawn) | – | > 100 | – | > 100 | – | > 100 | – | > 100 | – | – | – | > 100 | – | > 100 | – | > 100 | – | > 100 | > 100 | –
O=C(CC1=Nc2nnc(-c3nnc4n3C(=O)C(CC(=O)C3CC3)=N4)n2C1=O)C1CC1 | – | > 100 | – | > 100 | – | > 100 | – | > 100 | – | – | – | > 100 | – | – | – | > 100 | – | > 100 | > 100 | –
COC(=O)C1CCC(=O)N1/C(C)=N/NC(=O)Nc1ccc(Cl)c(Cl)c1 (stereo not drawn) | – | > 100 | – | > 100 | – | > 100 | – | > 100 | – | – | – | > 100 | – | > 100 | – | > 100 | – | > 100 | – | –
CCCCCCCCCCCCCCC(C)CCC(=O)O (stereo not drawn) | – | – | – | > 100 | – | > 100 | – | – | – | – | – | > 100 | – | > 100 | – | > 100 | – | > 100 | > 100 | –
C=CCN=C(N/N=C/c1ccc([N+](=O)[O-])o1)NS(=O)(=O)c1cc(C(=O)Nc2ccccc2)c(Cl)cc1SCC(N)=O | 9.16 | 49.8 | 17.1 | 32.5 | 17 | 42.1 | 69.8 µM | > 100 | > 100 | > 100 | 53 | > 100 | 29.6 | > 100 | 16.1 | 45.3 | 5.45 | 18.3 | – | –
CC(=O)[O-].[Mn+3].[O-]c1ccc(Cl)cc1C=NCCN=Cc1cc(Cl)ccc1[O-] | > 100 | > 100 | > 100 | > 100 | 38.6 | > 100 | 71.6 µM | > 100 | – | – | > 100 | > 100 | > 100 | > 100 | > 100 | > 100 | 88.5 | > 100 | > 100 | 34.7
COc1ccc(C(=O)O/N=C2/CCCCC2CN(C)C)cc1 (stereo not drawn) | – | > 100 | – | > 100 | – | > 100 | – | > 100 | – | – | – | > 100 | – | > 100 | – | > 100 | – | > 100 | > 100 | –
COc1cc(/C=C\c2cc(OC)c(OC)c(OC)c2)cc(NS(=O)(=O)c2ccc(Cl)cc2)c1OC | 0.306 | 34.6 | 0.572 | > 100 | 0.566 | > 100 | 0.391 µM | 22.9 | 0.365 | > 100 | 1.53 | > 100 | 0.6 | > 100 | 0.613 | 50.7 | 0.297 | 1.17 | – | –
COC(=O)c1sc(=NC(=S)N2CCCCC2)sc1C(=O)OC | – | > 100 | – | > 100 | – | – | – | > 100 | – | – | – | > 100 | – | > 100 | – | > 100 | – | > 100 | > 100 | –
OCC(O)C(O)C(O)C(O)c1nn[nH]n1 (stereo not drawn) | – | > 100 | – | > 100 | – | > 100 | – | > 100 | – | – | – | > 100 | – | > 100 | – | > 100 | – | > 100 | > 100 | –
CN(C)c1ccc(O[Si](Oc2ccc(N(C)C)cc2)(Oc2ccc(N(C)C)cc2)Oc2ccc(N(C)C)cc2)cc1 | – | > 100 | – | > 100 | – | > 100 | – | > 100 | – | – | – | > 100 | – | > 100 | – | – | – | > 100 | > 100 | –
CCOc1ccc(Nc2nc(-c3c(C)nc4ncccn34)cs2)cc1 | < 0.01 | > 100 | 0.034 | 13.8 | 0.0382 | 17.2 | 0.017 µM | 13.6 | < 0.01 | 29.1 | – | – | 0.0401 | 15.9 | 0.0389 | 21.7 | 0.0453 | 1.96 | – | –
O=C(/C=C(\[O-])c1ccccc1)CCCCCCC(=O)/C=C(\[O-])c1ccccc1.O=C(/C=C(\[O-])c1ccccc1)CCCCCCC(=O)/C=C(\[O-])c1ccccc1.O=C(/C=C(\[O-])c1ccccc1)CCCCCCC(=O)/C=C(\[O-])c1ccccc1.[Nd+3].[Nd+3] | > 50 | > 50 | > 50 | > 50 | > 50 | > 50 | > 50 µM | > 50 | – | – | > 50 | > 50 | > 50 | > 50 | > 50 | > 50 | > 50 | > 50 | > 50 | > 50
CC(=O)OCC1OC(n2c(=S)n(-c3ccccc3)c(=O)c3cc(Br)cc(Br)c32)C(OC(C)=O)C(OC(C)=O)C1OC(C)=O (stereo not drawn) | – | > 100 | – | > 100 | – | > 100 | 28.6 µM and > 100 µM | > 100 | – | – | – | – | – | > 100 | – | > 100 | – | > 100 | > 100 | –
[Cl-].[Gd+3].[O-]/N=C(\c1ccccc1)c1ccccn1.[O-]/N=C(\c1ccccc1)c1ccccn1.[O-]/N=C(\c1ccccc1)c1ccccn1 | 65 | > 100 | 37.3 | > 100 | 28.5 | 76.5 | 51.4 µM | > 100 | – | – | 43.7 | > 100 | 34.3 | > 100 | 27.1 | 78.5 | 48.9 | > 100 | > 100 | 95.8
COc1cc(CCc2ccc(OC(C)=O)cc2)cc(OC)c1OC | – | > 100 | – | > 100 | – | > 100 | – | > 100 | – | – | – | > 100 | – | > 100 | – | – | – | > 100 | > 100 | –
NC(N)=N/N=C/c1c(-c2ccc(Cl)c([N+](=O)[O-])c2)nc2sc3ccccc3n12 | 0.209 | > 50 | 0.842 | 2.54 | 0.0923 | 0.17 | 0.136 µM | 12 | 0.583 | 1.76 | – | – | 1.19 | 2.76 | 26.8 | > 50 | 0.952 | 1.95 | – | –
COC(=O)[C@]1(C)CCC[C@]2(C)[C@@H]1CCC13C[C@@H](C=CO1)[C@@H](C)CC32O (stereo partly drawn) | 36.7 | > 100 | – | – | > 100 | > 100 | 50.3 µM | > 100 | > 100 | > 100 | 61.5 | > 100 | > 100 | > 100 | > 100 | > 100 | 34 | > 100 | – | –
Nc1nc(=S)[nH]c(C(=O)Nc2nccs2)c1-c1ccccc1 | – | > 100 | – | > 100 | – | > 100 | – | > 100 | – | – | – | > 100 | – | > 100 | – | > 100 | – | > 100 | > 100 | –
COc1ccc(-c2cc(-c3ccco3)c(C#N)c(=O)[nH]2)cc1 | – | > 100 | – | > 100 | – | > 100 | – | > 100 | – | – | – | > 100 | – | > 100 | – | – | – | – | 75.7 | –
